Experiments:
[1] = Crystal form stability study (influencing factor experiments); assay type: physicochemical
Protocol: Samples of the crystal forms A, B, C, I, J, and K of the compound represented by formula (I) were taken, spread in open containers, and left to stand under conditions of light exposure (4500 Lux), high temperatures (40° C. and 60° C.), and high humidities (RH 75% and RH 92.5%) for 30 days to investigate their stability, and the results are shown in Table 16.

[2] = Long-term/accelerated stability; assay type: physicochemical
[3] = 40° C., 10 days, open container
[4] = 40° C., 30 days, open container
[5] = 60° C., 10 days, open container
[6] = 60° C., 30 days, open container
[7] = 75% RH, 10 days, open container
[8] = 75% RH, 30 days, open container
[9] = 92.5% RH, 5 days, open container
[10] = 92.5% RH, 10 days, open container
[11] = 92.5% RH, 30 days, open container
[12] = light exposure (4500 Lux), 5 days, open container
[13] = light exposure (4500 Lux), 10 days, open container
[14] = light exposure (4500 Lux), 30 days, open container

In the case of `CCc1c(F)ccc2cc(O)cc(-c3nc4c5c(nc(OC[C@@]67CCCN6C[C@H](F)C7)nc5c3F)N3C[C@H]5CC[C@H](N5)[C@H]3CO4)c12` [Crystal form J, 5-Ethyl-6-fluoro-4-((5aS,6S,9R)-1-fluoro-12-(((2R,7aS)-2-fluorotetrahydro-1H-pyrrolizin-7a(5H)-yl)methoxy)-5a,6,7,8,9,10-hexahydro-5H-4-oxa-3,10a,11,13,14-pentaaza-6,9-methanonaphtho[1,8-ab]heptalen-2-yl)naphthalen-2-ol], the Color and state ([1]; 40° C., 5 days, open container) is reported as “Off-white solid”, the Crystal form ([1]; 40° C., 5 days, open container) is reported as “Did not change” and the Purity % ([1]; 40° C., 5 days, open container) is reported as 99.2%. For the same molecule, the Color and state [1, 3] was “Off-white solid”, the Crystal form [1, 3] was “Did not change” and the Purity % [1, 3] was 98.8%. For the same molecule, the Color and state [1, 4] was “Off-white solid”, the Crystal form [1, 4] was “Did not change” and the Purity % [1, 4] was 97.9%. For the same molecule, the Color and state ([1]; 60° C., 5 days, open container) was “Off-white solid”, the Crystal form ([1]; 60° C., 5 days, open container) was “Did not change” and the Purity % ([1]; 60° C., 5 days, open container) was 99.1%. The Color and state [1, 5] was “Off-white solid”, the Crystal form [1, 5] was “Did not change” and the Purity % [1, 5] was 98.5%. For the same molecule, the Color and state [1, 6] was “Off-white solid”, the Crystal form [1, 6] was “Did not change” and the Purity % [1, 6] was 97.4%. For the same molecule, the Color and state ([1]; 75% RH, 5 days, open container) was “Off-white solid”, the Crystal form ([1]; 75% RH, 5 days, open container) was “Did not change” and the Purity % ([1]; 75% RH, 5 days, open container) was 99.6%. For the same molecule, the Color and state [1, 7] was “Off-white solid”, the Crystal form [1, 7] was “Did not change” and the Purity % [1, 7] was 99.6%. For the same molecule, the Color and state [1, 8] was “Off-white solid”, the Crystal form [1, 8] was “Did not change” and the Purity % [1, 8] was 99.5%. The Color and state [1, 9] was “Off-white solid”, the Crystal form [1, 9] was “Did not change” and the Purity % [1, 9] was 99.6%. For the same molecule, the Color and state [1, 10] was “Off-white solid”, the Crystal form [1, 10] was “Did not change” and the Purity % [1, 10] was 99.5%. For the same molecule, the Color and state [1, 11] was “Off-white solid”, the Crystal form [1, 11] was “Did not change” and the Purity % [1, 11] was 99.5%. The Color and state ([1]; Initial, 0 days) was “Off-white solid”, the Crystal form ([1]; Initial, 0 days) was “Crystal form J” and the Purity % ([1]; Initial, 0 days) was 99.6%. The “Physical and chemical properties (conclusion of influencing factor experiments)” value ([1]; high temperatures and high humidities for 30 days) was “good physical and chemical properties”, the Color and state [1, 12] was “Off-white solid” and the Crystal form [1, 12] was “Did not change”. For the same molecule, the Purity % [1, 12] was 98.1%, the Color and state [1, 13] was “Pale yellow solid” and the Crystal form [1, 13] was “Did not change”. For the same molecule, the Purity % [1, 13] was 95.5%, the Color and state [1, 14] was “Pale yellow solid” and the Crystal form [1, 14] was “Did not change”. The Purity % [1, 14] was 93.0%, the “Purity % 1 month” value ([2]; 25° C./60% RH) was 99.5% and the “Purity % 2 months” value ([2]; 25° C./60% RH) was 99.6%. For the same molecule, the “Purity % 3 months” value ([2]; 25° C./60% RH) was 99.6%, the “Purity % Initial” value ([2]; 25° C./60% RH) was 99.6% and the “Purity % 1 month” value ([2]; 40° C./75% RH) was 99.4%. For the same molecule, the “Purity % 2 months” value ([2]; 40° C./75% RH) was 99.3%, the “Purity % 3 months” value ([2]; 40° C./75% RH) was 99.2% and the “Purity % Initial” value ([2]; 40° C./75% RH) was 99.6%.
